Source: ChEMBL document CHEMBL5576037, “Discovery of the first ataxia telangiectasia and Rad3-related (ATR) degraders for cancer treatment” (Eur J Med Chem, 2024)
Active and inactive are the calls of the source. The calls are words filed in the database; no cut-off is given here.

Tests used:
HCT-116 = test: Antiproliferative activity against human HCT-116 cells expressing wildtype ATM incubated for 72 hrs by CCK8 assay; format: functional, cell-based; details: HCT-116, 72 h
LoVo [1] = test: Antiproliferative activity against ATM deficient human LoVo cells incubated for 72 hrs by CCK8 assay; format: functional, cell-based
[2] = biological target: Protein cereblon/Serine/threonine-protein kinase ATR (Homo sapiens, UniProt Q13535+Q96SW2); test: PROTAC activity at CRBN/ATR in human LoVo cells assessed as induction of ATR degradation; format: cell-based
Sequence of Protein cereblon/Serine/threonine-protein kinase ATR (Q13535 whole entry, looked up): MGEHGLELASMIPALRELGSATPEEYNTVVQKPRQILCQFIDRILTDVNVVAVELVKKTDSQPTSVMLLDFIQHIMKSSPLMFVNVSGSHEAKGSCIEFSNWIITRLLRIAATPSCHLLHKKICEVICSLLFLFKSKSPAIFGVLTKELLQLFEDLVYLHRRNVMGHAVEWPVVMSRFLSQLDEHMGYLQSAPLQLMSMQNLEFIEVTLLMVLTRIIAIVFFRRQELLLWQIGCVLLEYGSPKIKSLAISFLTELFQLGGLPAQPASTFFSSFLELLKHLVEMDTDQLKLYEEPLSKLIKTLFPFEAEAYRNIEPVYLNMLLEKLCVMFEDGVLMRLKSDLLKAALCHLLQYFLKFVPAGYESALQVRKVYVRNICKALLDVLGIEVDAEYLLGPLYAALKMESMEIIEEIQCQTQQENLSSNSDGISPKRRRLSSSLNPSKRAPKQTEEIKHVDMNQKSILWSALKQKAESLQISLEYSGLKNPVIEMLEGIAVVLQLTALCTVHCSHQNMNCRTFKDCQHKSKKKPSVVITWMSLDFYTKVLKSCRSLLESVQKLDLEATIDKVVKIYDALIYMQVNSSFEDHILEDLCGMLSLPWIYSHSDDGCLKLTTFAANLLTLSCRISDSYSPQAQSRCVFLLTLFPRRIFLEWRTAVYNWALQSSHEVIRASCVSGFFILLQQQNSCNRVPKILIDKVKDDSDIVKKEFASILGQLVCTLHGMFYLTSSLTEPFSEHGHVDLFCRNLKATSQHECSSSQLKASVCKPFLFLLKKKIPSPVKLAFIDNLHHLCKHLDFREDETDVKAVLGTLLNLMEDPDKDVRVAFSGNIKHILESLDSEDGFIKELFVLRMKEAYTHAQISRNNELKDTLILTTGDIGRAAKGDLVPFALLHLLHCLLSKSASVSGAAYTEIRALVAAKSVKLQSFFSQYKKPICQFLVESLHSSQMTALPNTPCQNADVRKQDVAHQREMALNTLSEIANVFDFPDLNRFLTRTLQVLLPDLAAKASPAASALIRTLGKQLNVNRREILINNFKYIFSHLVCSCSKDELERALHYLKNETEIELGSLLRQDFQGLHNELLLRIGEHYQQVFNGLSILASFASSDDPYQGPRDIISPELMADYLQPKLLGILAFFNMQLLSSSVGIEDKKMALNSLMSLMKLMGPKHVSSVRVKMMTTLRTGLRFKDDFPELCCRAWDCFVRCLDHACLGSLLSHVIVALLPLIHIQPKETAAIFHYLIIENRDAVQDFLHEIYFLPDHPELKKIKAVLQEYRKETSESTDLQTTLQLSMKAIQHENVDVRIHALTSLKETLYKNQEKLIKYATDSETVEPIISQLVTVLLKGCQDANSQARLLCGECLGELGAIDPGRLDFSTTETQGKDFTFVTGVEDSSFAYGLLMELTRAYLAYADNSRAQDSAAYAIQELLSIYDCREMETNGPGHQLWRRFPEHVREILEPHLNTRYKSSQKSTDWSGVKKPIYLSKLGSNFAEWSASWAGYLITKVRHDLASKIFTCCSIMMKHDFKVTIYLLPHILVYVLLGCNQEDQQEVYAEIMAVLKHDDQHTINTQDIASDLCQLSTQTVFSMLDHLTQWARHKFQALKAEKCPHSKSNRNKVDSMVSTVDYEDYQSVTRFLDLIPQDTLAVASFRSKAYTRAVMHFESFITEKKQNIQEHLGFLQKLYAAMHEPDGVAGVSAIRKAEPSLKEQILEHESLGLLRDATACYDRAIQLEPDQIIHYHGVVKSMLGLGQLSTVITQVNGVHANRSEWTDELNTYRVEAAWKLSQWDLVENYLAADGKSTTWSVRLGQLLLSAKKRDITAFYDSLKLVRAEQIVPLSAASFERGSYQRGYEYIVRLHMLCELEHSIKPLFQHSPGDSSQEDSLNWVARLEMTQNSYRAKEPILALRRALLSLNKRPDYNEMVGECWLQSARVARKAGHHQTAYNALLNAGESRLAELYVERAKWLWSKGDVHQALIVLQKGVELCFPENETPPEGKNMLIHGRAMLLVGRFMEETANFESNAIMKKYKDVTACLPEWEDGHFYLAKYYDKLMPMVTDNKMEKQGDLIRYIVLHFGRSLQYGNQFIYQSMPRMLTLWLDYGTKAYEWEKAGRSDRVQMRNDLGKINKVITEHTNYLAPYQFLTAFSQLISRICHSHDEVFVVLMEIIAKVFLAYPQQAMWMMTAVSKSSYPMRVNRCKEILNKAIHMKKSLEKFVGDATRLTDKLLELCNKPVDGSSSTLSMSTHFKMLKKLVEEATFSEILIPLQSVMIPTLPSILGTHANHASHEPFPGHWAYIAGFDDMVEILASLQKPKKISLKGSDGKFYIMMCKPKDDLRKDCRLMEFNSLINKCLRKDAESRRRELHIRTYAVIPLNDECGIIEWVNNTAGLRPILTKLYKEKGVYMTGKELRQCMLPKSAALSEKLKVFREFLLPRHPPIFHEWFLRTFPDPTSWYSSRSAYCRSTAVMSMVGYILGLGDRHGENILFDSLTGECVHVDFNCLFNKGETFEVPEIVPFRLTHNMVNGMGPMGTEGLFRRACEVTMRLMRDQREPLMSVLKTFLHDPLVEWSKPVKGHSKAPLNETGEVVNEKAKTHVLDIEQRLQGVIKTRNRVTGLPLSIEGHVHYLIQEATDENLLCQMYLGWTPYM
Sequence of Protein cereblon/Serine/threonine-protein kinase ATR (Q96SW2 whole entry, looked up): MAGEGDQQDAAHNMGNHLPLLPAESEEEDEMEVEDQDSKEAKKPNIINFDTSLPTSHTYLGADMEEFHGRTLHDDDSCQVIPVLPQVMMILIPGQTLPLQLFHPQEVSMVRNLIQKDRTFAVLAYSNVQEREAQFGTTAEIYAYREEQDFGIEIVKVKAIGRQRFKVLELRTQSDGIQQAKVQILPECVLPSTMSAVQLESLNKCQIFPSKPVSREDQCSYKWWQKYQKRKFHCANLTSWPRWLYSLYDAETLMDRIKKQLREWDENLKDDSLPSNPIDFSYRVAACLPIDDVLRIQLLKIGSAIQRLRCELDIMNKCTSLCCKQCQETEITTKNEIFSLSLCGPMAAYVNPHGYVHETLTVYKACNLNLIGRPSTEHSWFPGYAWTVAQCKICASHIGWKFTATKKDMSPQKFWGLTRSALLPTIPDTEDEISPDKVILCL

LoVo [3] = test: Induction of apoptosis in human LoVo cells assessed as apoptotic rate at 1 uM incubated for 48 hrs by Annexin V-FITC/PI staining based flow cytometric analysis (reference value: 5.32 %); format: functional
LoVo [4] = test: Cell cycle arrest in human LoVo cells assessed as accumulation of cells at G2/M phase at 1 uM incubated for 72 hrs by PI staining based flow cytometric analysis (reference value: 22.2 %); format: functional
LoVo [5] = test: Induction of DNA damage in human LoVo cells assessed as increase in gammaH2AX expression at 1 uM incubated for 72 hrs by DAPI staining based immunofluorescence analysis; format: functional, cell-based
LoVo [6] = test: Cell cycle arrest in human LoVo cells assessed as accumulation of cells at S phase at 1 uM incubated for 72 hrs by PI staining based flow cytometric analysis (reference value: 25.5 %); format: functional
LoVo [7] = test: Synergistic antitumor activity against human LoVo cells xenografted in BALB/c nude mouse assessed as tumor growth inhibition at 12.5 mg/kg, po administered once daily for 15 days in presence of cisplatin relative to control; format: functional; details: 360 h, time 15 day, read-out: TGI
LoVo [8] = test: Cell cycle arrest in human LoVo cells assessed as accumulation of cells at G0/G1 phase at 1 uM incubated for 72 hrs by PI staining based flow cytometric analysis (reference value: 52.3 %); format: functional
[9] = biological target: Serine/threonine-protein kinase ATR (Homo sapiens, UniProt Q13535); test: Inhibition of ATR (unknown origin)
Sequence of Serine/threonine-protein kinase ATR (Q13535 whole entry): as the sequence (Q13535 whole entry, looked up) above

[10] = Selectivity ratio for inhibition of PI3K (unknown origin) to inhibition of ATR (unknown origin)
[11] = Selectivity ratio for inhibition of ATM (unknown origin) to inhibition of ATR (unknown origin)

Row | Compound | IC50 (HCT-116) [µM] | IC50 (LoVo [1]) [µM] | further results
1 | Cc1ncsc1-c1ccc(CNC(=O)[C@@H]2C[C@@H](O)CN2C(=O)[C@@H](NC(=O)CCCCCCCCCCn2cc(CCC(=O)N=[S@](C)(=O)C3(c4cc(N5CCOC[C@H]5C)nc(-c5ccnc6[nH]ccc56)n4)CC3)nn2)C(C)(C)C)cc1 | > 50 | > 50 | –
2 | CCN1C(=O)CCC(N2C(=O)c3cccc(NC(=O)CCCCCCCCCn4cc(CCC(=O)N=[S@](C)(=O)C5(c6cc(N7CCOC[C@H]7C)nc(-c7ccnc8[nH]ccc78)n6)CC5)nn4)c3C2=O)C1=O (stereo not given in full) | > 50 | > 50 | Activity [2]: inactive
3 | C[C@@H]1COCCN1c1cc(C2([S@@](C)(=O)=NC(=O)CCc3cn(CCCCCCCCCC(=O)Nc4cccc5c4C(=O)N(C4CCC(=O)NC4=O)C5=O)nn3)CC2)nc(-c2ccnc3[nH]ccc23)n1 (stereo not given in full) | > 50 | 21.2 | –
4 | Cc1ncsc1-c1ccc(CNC(=O)[C@@H]2C[C@@H](O)CN2C(=O)[C@@H](NC(=O)CCCCCCCn2cc(CCC(=O)N=[S@](C)(=O)C3(c4cc(N5CCOC[C@H]5C)nc(-c5ccnc6[nH]ccc56)n4)CC3)nn2)C(C)(C)C)cc1 | > 50 | > 50 | –
5 | C[C@@H]1COCCN1c1cc(C2([S@](C)(=N)=O)CC2)nc(-c2cc[nH]c3nccc2-3)n1 [CERALASERTIB] | 3.62 | 0.83 | Activity (LoVo [3]): 42%; Activity (LoVo [4]): 11.5%; Activity (LoVo [5]): Active; Activity (LoVo [6]): 16.7%; inhibition in vivo at 12.5 mg/kg (LoVo [7]): 52.7%; Activity (LoVo [8]): 71.8%
6 | C[C@@H]1COCCN1c1cc(C2([S@@](C)(=O)=NC(=O)CCc3cn(CCCCCC(=O)Nc4cccc5c4C(=O)N(C4CCC(=O)NC4=O)C5=O)nn3)CC2)nc(-c2ccnc3[nH]ccc23)n1 (stereo not given in full) | > 50 | 23.3 | –
7 | Nc1nn2cc(F)cnc2c1C(=O)Nc1cncc(F)c1N1CCC(C(=O)N2CCN(C3COC3)CC2)CC1 [M4344] | – | – | IC50 [9]: 0.00015 µM; Selectivity ratio [10]: > 50; Selectivity ratio [11]: > 50
8 | C[C@@H]1COCCN1c1cc(C2([S@@](C)(=O)=NC(=O)CCc3cn(CCCCCCCCCCC(=O)Nc4cccc5c4C(=O)N(C4CCC(=O)NC4=O)C5=O)nn3)CC2)nc(-c2ccnc3[nH]ccc23)n1 (stereo not given in full) | > 50 | 16.4 | –
9 | C[C@@H]1COCCN1c1cc(C2([S@@](C)(=O)=NC(=O)CCc3cn(CCOCCOCC(=O)Nc4cccc5c4C(=O)N(C4CCC(=O)NC4=O)C5=O)nn3)CC2)nc(-c2ccnc3[nH]ccc23)n1 (stereo not given in full) | > 50 | 26.7 | –
10 | C[C@@H]1COCCN1c1cc(C2([S@@](C)(=O)=NC(=O)CCc3cn(CCOCCOCCOCC(=O)Nc4cccc5c4C(=O)N(C4CCC(=O)NC4=O)C5=O)nn3)CC2)nc(-c2ccnc3[nH]ccc23)n1 (stereo not given in full) | > 50 | > 50 | –

Now from value to compound, other results behind:

Row | IC50 (HCT-116) [µM] | IC50 (LoVo [1]) [µM] | Compound | further results
11 | > 50 | 28.4 | C[C@@H]1COCCN1c1cc(C2([S@@](C)(=O)=NC(=O)CCc3cn(CCCCC(=O)Nc4cccc5c4C(=O)N(C4CCC(=O)NC4=O)C5=O)nn3)CC2)nc(-c2ccnc3[nH]ccc23)n1 (stereo not given in full) | –
12 | > 50 | > 50 | Cc1ncsc1-c1ccc(CNC(=O)[C@@H]2C[C@@H](O)CN2C(=O)[C@@H](N)C(C)(C)C)cc1 | –
13 | > 50 | 32.4 | C[C@@H]1COCCN1c1cc(C2([S@@](C)(=O)=NC(=O)CCc3cn(CCCCCCCCC(=O)Nc4cccc5c4C(=O)N(C4CCC(=O)NC4=O)C5=O)nn3)CC2)nc(-c2ccnc3[nH]ccc23)n1 (stereo not given in full) | –
14 | > 50 | > 50 | Nc1cccc2c1C(=O)N(C1CCC(=O)NC1=O)C2=O (stereo not given) [POMALIDOMIDE] | –
15 | > 50 | 20 | C[C@@H]1COCCN1c1cc(C2([S@@](C)(=O)=NC(=O)CCc3cn(CCCCCCC(=O)Nc4cccc5c4C(=O)N(C4CCC(=O)NC4=O)C5=O)nn3)CC2)nc(-c2ccnc3[nH]ccc23)n1 (stereo not given in full) | –
16 | > 50 | > 50 | Cc1ncsc1-c1ccc(CNC(=O)[C@@H]2C[C@@H](O)CN2C(=O)[C@@H](NC(=O)CCCCn2cc(CCC(=O)N=[S@](C)(=O)C3(c4cc(N5CCOC[C@H]5C)nc(-c5ccnc6[nH]ccc56)n4)CC3)nn2)C(C)(C)C)cc1 | –
